Test results published in patent publication US20180259530A1, “Method and kit for testing chronic myelogenous leukemia (CML), method for isolating TKI-resistant CML cells, and agent for reducing TKI-resistance of CML and method for screening the same” (The University of Tokyo, priority 2017, published 2018).

Tests used:
Type in all cases: cell-based, human
[1] = tested on: mRNA transcribed from the ADAM8 gene in HL60AML cell line; test: ADAM8 gene expression inhibition by shRNA (mRNA amount); details: HL60, lentiviral shRNA, 72 hours puromycin selection; non-target_shRNA defined as 1; FIG. 18
Description: After extraction of total RNA with RNAeasy reagent (QIAGEN), reverse transcription was performed with ReverTra Ace qPCR RT Master Mix (TOYOBO). The primer sequences used for PCR are shown below. Real-time quantitative PCRs were carried out in ABI-7000 Sequencing System with THUNDERBIRD SYBR qPCR Mix, following the manufacturer's instructions (TOYOBO). Each assay was performed in triplicate. 18S rRNA and β-actin were used as endogenous controls.
The amount of mRNA transcribed from the ADAM8 gene in the cells was measured after treatment of an HL60AML cell line with ADAM8_shRNA 1 (SEQ ID NO: 45), ADAM8_shRNA 2 (SEQ ID NO: 46) and ADAM8_shRNA_3 (SEQ ID NO: 47). The target sequences of ADAM8_shRNA_1, ADAM8_shRNA_2 and ADAM8_shRNA_3 are listed as SEQ ID NO: 49, 50 and 51, respectively. Specifically, pLKO.1-puro-CMV-tGFP (Sigma Aldrich Japan) incorporating DNA encoding shRNA was transferred into HEK293 cells together with pMISSION GAG POL (Sigma Aldrich Japan) and pMISSION VSV-G (Sigma Aldrich Japan), to obtain an shRNA-expressing lentivirus. The obtained lentivirus was used to infect HL60, 1 μg/ml puromycin was used for 72 hours of selection, and ADAM8 gene expression in the selected cells was analyzed. The expression level of the ADAM8 gene when using non-target_shRNA that targets a non-ADAM8 gene (SEQ ID NO: 48, target sequence: SEQ ID NO: 52) (indicated as “non-target” in the graph) was defined as 1.

[2] = tested on: CD34+ADAM8+ CML cells of CML-CP patient; test: Cell viability assay of CD34+ADAM8+ and CD34+ADAM8- cell fractions with imatinib; details: 48 hours exposure to imatinib; FIG. 11
Description: (§1) The cell viability assay and apoptosis assay were carried out according to the method described in Ma, L. et al., Sci. Transl. Med. 6, 252ral21(2014).

[3] = tested on: CML-pre-HPCs; test: Apoptosis assay in hematopoietic differentiation of CML-iPSCs; details: 5 μM imatinib, 48 hours from medium exchange; FIG. 5
[4] = tested on: CD34+ADAM8+ CML cells of CML-CP patient; test: Apoptosis assay of CD34+ADAM8+ and CD34+ADAM8- cell fractions with imatinib; details: 48 hours exposure to imatinib; FIG. 12
Description: as §1

[5] = tested on: CD34+ADAM8+ cells (CML-CP9- and CML-CP23-derived); test: Cell viability assay with imatinib plus GM6001; details: 1.0 μM imatinib and 2.5 μM GM6001 vs 1.0 μM imatinib alone; FIG. 21, 22
Description: as §1

[6] = tested on: CD34+ADAM8- cells; test: Cell viability assay with GM6001, CD34+ADAM8- cells; details: GM6001 2.5 μM; FIG. 20
Description: as §1
(§2) CD34+ADAM8+ cells and CD34+ADAM8− cells were used for a cell viability assay in the absence of GM6001 (Merck Millipore) and in the presence of GM6001 at specific concentrations (2.5 μM, 5 μM, 20 μM). […] GM6001 was confirmed to have no effect on the cell viability of either CD34+ADAM8+ cells or CD34+ADAM8− cells, at a concentration of 2.5 μM.

[7] = tested on: CD34+ADAM8+ cells; test: Cell viability assay with GM6001, CD34+ADAM8+ cells; details: GM6001 2.5 μM; FIG. 20
Description: as §1, §2

ADAM8_shRNA_2: shRNA that inhibits expression of the ADAM8 gene, SEQ ID NO: 46, target sequence SEQ ID NO: 50 (CCGGGGGCCUGGAGAUUUGGAAUAGCUCGAGCUAUUCCAAAUCUCCAGGCCCUUUUU)
knockdown of ADAM8 gene expression (mRNA) [1]: confirmed to have the ability to knockdown ADAM8

Cc1ccc(NC(=O)c2ccc(CN3CCN(C)CC3)cc2)cc1Nc1nccc(-c2cccnc2)n1 [imatinib]
imatinib resistance (cell viability) of ADAM8+ CML cells compared to ADAM8- CML cells [2]: greater imatinib resistance | apoptosis induction in CML-pre-HPCs [3]: not induced to undergo apoptosis | apoptosis induced by imatinib in ADAM8+ CML cells compared to ADAM8- CML cells [4]: suppressed

CNC(=O)[C@H](Cc1c[nH]c2ccccc12)NC(=O)[C@@H](CC(=O)NO)CC(C)C [GM6001, (2R)—N^4-Hydroxy-N^1-[(1S)-2-(1H-indol-3-ylmethyl)-2-(methylamino)-2-oxoethyl]-2-(2-methylpropyl)butanediamide]
TKI resistance (cell viability) on inhibition of ADAM8 activity [5]: TKI resistance is lowered | effect on cell viability of CD34+ADAM8- cells [6]: no effect | effect on cell viability of CD34+ADAM8+ cells [7]: no effect

ADAM8_shRNA_1: shRNA that inhibits expression of the ADAM8 gene, SEQ ID NO: 45, target sequence SEQ ID NO: 49 (CCGGGGACAAGCUAUAUCAGAAACUCUCGAGAGUUUCUGAUAUAGCUUGUCCUUUUU)
knockdown of ADAM8 gene expression (mRNA) [1]: confirmed to have the ability to knockdown ADAM8

ADAM8_shRNA_3: shRNA that inhibits expression of the ADAM8 gene, SEQ ID NO: 47, target sequence SEQ ID NO: 51 (CCGGGGAAUAGUCAGGACAGGUUCCCUCGAGGGAACCUGUCCUGACUAUUCCUUUUU)
knockdown of ADAM8 gene expression (mRNA) [1]: confirmed to have the ability to knockdown ADAM8
